From patent US20210112813A1, “HERBICIDAL COMPOSITION AND USE THEREOF” (NANTONG JIANGSHAN AGROCHEMICAL & CHEMICALS CO., LTD., priority 2019, published 2021)

Legend:
Assay type in all cases: in vivo
Abutilon [1] = assay: Field plot test, non-cultivated weeds, early post-emergence
Protocol: (§1) The present application also conducted a medicinal efficacy test on weeds on the formulation examples containing herbicide active component A and active component B by the field plot test method, and clarified the control effect of the composition on non-cultivated weeds.
(§2) According to the different components of different formulation examples, pre-emergence soil treatment, early post-emergence and post-emergence stem and leaf spray treatment were carried out respectively. The spraying device was Singapore Linong HD400 hand-operating knapsack sprayer (No. H17001), working pressure: […], spray rate: 640 mL/min, adjustable cone spraying nozzle (325787), spraying nozzle height: 0.5 m, spray width: 0.85 m, walking speed: about 16.7 m/min, and spray volume: […];

Echinochloacrusgalli [2] = assay: as above
Protocol: as §1, §2

Amaranthusretroflexus [3] = assay: as above
Protocol: as §1, §2

Bristlegrass [4] = assay: as above
Protocol: as §1, §2

Abutilon [5] = assay: Greenhouse pot test, pre-emergence soil treatment, visual control effect 30 days after treatment, Gowing method
Protocol: (§3) In the present application, indoor combined action of the compound of herbicide active component A and B on weeds was measured to determine the combined effect of the composition on weeds, wherein the structure of the active component A was as follows:
(§4) The weed cultivation method was as follows: quantitative weed seeds abutilon and bristlegrass were respectively sown in a paper cup filled with nutrient soil with a diameter of 7 cm, and then cultivated in the greenhouse after covering the soil, suppressing and watering. The post-emergence stem and leaf treatment was performed when the grass weeds grew to 5-7 leaf stage, broad-leaved weeds grew to 6-8 leaf stage; the pre-emergence soil treatment was performed the second day after sowing, and the early post-emergence treatment was performed after sowing and before emergence; the experiment was repeated 3 times. After the treatment and drug solution naturally dried, the weeds were placed in the greenhouse to be managed according to conventional methods. According to the suppression or death of the weeds, a visual control effect investigation was conducted 30 days after the treatment. The application adopted the Gowing method to evaluate the combined effect of the proposed composition.
(§5) X—Weed control effect when the amount of herbicide component A is P;
(§6) Y—Weed control effect when the amount of herbicide component B is Q;
(§7) E0—Theoretical control effect when the amount of herbicide component A is […];
(§8) E—The measured control effect after the herbicide component A and the herbicide component B are mixed according to the above ratio.
(§9) When E−E0>10%, it is synergism; when E−E0<−10%, it is antagonism; when E−E0 value is between ±10%, it is addition.

Bristlegrass [6] = assay: as above
Protocol: as §3, §4, §5, §6, §7, §8, §9

Abutilon [7] = assay: Greenhouse pot test, post-emergence stem and leaf treatment, visual control effect 30 days after treatment, Gowing method
Protocol: as §3, §4, §5, §6, §7, §8, §9

Bristlegrass [8] = assay: as above
Protocol: as §3, §4, §5, §6, §7, §8, §9

Abutilon [9] = assay: Field plot test, non-cultivated weeds, post-emergence stem and leaf spray; details: Table 10, dose 100 ga.i./hm^2
Protocol: as §1, §2

Echinochloacrusgalli [10] = assay: as above; details: Table 10, dose 100 ga.i./hm^2
Protocol: as §1, §2

Amaranthusretroflexus [11] = assay: as above; details: Table 10, dose 100 ga.i./hm^2
Protocol: as §1, §2

Bristlegrass [12] = assay: as above; details: Table 10, dose 100 ga.i./hm^2
Protocol: as §1, §2

Bristlegrass [13] = assay: Greenhouse pot test (treatment timing not given, Tables 6 and 7), visual control effect, Gowing method
Protocol: as §3, §4, §5, §6, §7, §8, §9

Amaranthusretroflexus [14] = assay: Greenhouse pot test (treatment timing not given, Table 7), visual control effect, Gowing method
Lambsquarters [15] = assay: Field plot test, non-cultivated weeds, pre-emergence soil treatment; details: Table 8, dose 600 ga.i./hm^2
Protocol: as §1, §2

Crabgrass = assay: as above; details: Table 8, dose 600 ga.i./hm^2
Protocol: as §1, §2

Amaranthusretroflexus [16] = assay: as above; details: Table 8, dose 600 ga.i./hm^2
Protocol: as §1, §2

Bristlegrass [17] = assay: as above; details: Table 8, dose 600 ga.i./hm^2
Protocol: as §1, §2

Lambsquarters [18] = assay: Greenhouse pot test, pre-emergence soil treatment, visual control effect 30 days after treatment, Gowing method
Abutilon [19] = assay: Greenhouse pot test (treatment timing not given, Table 6), visual control effect, Gowing method
Protocol: as §3, §4, §5, §6, §7, §8, §9

With Cn1nc(C(F)(F)F)c(CS(=O)(=O)C2=NOC(C)(C)C2)c1OC(F)F [Pyroxasulfone] the “Control effect, Abutilon” value (Abutilon [1]; Table 9, dose 200 ga.i./hm^2) was 30, the “Control effect, Echinochloacrusgalli” value (Echinochloacrusgalli [2]; Table 9, dose 200 ga.i./hm^2) was 15 and the “Control effect, Amaranthusretroflexus” value (Amaranthusretroflexus [3]; Table 9, dose 200 ga.i./hm^2) was 60. The “Control effect, Bristlegrass” value (Bristlegrass [4]; Table 9, dose 200 ga.i./hm^2) was 35, the “Measured value E” value (Abutilon [5]; Table 4, dose 90 ga.i./hm^2) was 40% and the “Measured value E” value (Abutilon [5]; Table 4, dose 180 ga.i./hm^2) was 55%. The “Measured value E” value (Bristlegrass [6]; Table 4, dose 90 ga.i./hm^2) was 60%, the “Measured value E” value (Bristlegrass [6]; Table 4, dose 180 ga.i./hm^2) was 75% and the “Measured value E” value (Abutilon [7]; Table 5, dose 45 ga.i./hm^2) was 50%. The “Measured value E” value (Abutilon [7]; Table 5, dose 90 ga.i./hm^2) was 65%, the “Measured value E” value (Bristlegrass [8]; Table 5, dose 45 ga.i./hm^2) was 70% and the “Measured value E” value (Bristlegrass [8]; Table 5, dose 90 ga.i./hm^2) was 85%.
Acetofluran was tested, and the “Control effect, Abutilon” value (Abutilon [9]) was 75, the “Control effect, Echinochloacrusgalli” value (Echinochloacrusgalli [10]) was 70 and the “Control effect, Amaranthusretroflexus” value (Amaranthusretroflexus [11]) was 75. For the same compound, the “Control effect, Bristlegrass” value (Bristlegrass [12]) was 55, the “Measured value E” value (Bristlegrass [13]; Table 7, dose 60 ga.i./hm^2) was 5% and the “Measured value E” value (Bristlegrass [13]; Table 7, dose 90 ga.i./hm^2) was 30%. The “Measured value E” value (Amaranthusretroflexus [14]; dose 60 ga.i./hm^2) was 35% and the “Measured value E” value (Amaranthusretroflexus [14]; dose 90 ga.i./hm^2) was 55%.
For CCc1cccc(C)c1N(C(=O)CCl)[C@@H](C)COC [S-metolachlor], the “Control effect, Lambsquarters” value (Lambsquarters [15]) was 50, the “Control effect, Crabgrass” value (Crabgrass) was 70 and the “Control effect, Amaranthusretroflexus” value (Amaranthusretroflexus [16]) was 75. The “Control effect, Bristlegrass” value (Bristlegrass [17]) was 60, the “Measured value E” value (Bristlegrass [6]; Table 2, dose 90 ga.i./hm^2) was 35% and the “Measured value E” value (Bristlegrass [6]; Table 2, dose 135 ga.i./hm^2) was 60%. The “Measured value E” value (Lambsquarters [18]; Table 2, dose 90 ga.i./hm^2) was 45% and the “Measured value E” value (Lambsquarters [18]; Table 2, dose 135 ga.i./hm^2) was 65%.
For CCc1cccc(C)c1N(C(=O)CCl)C(C)COC (stereo not shown) [metolachlor], the “Control effect, Lambsquarters” value (Lambsquarters [15]) was 50, the “Control effect, Crabgrass” value (Crabgrass) was 60 and the “Control effect, Amaranthusretroflexus” value (Amaranthusretroflexus [16]) was 60. For the same compound, the “Control effect, Bristlegrass” value (Bristlegrass [17]) was 45, the “Measured value E” value (Bristlegrass [6]; Table 2, dose 90 ga.i./hm^2) was 40% and the “Measured value E” value (Bristlegrass [6]; Table 2, dose 135 ga.i./hm^2) was 60%. For the same compound, the “Measured value E” value (Lambsquarters [18]; Table 2, dose 90 ga.i./hm^2) was 50% and the “Measured value E” value (Lambsquarters [18]; Table 2, dose 135 ga.i./hm^2) was 55%.
With CCOc1cc(Oc2ccc(C(F)(F)F)cc2Cl)ccc1[N+](=O)[O-] [Oxyfluorfen] the “Control effect, Abutilon” value (Abutilon [9]) was 80, the “Control effect, Echinochloacrusgalli” value (Echinochloacrusgalli [10]) was 85 and the “Control effect, Amaranthusretroflexus” value (Amaranthusretroflexus [11]) was 80. The “Control effect, Bristlegrass” value (Bristlegrass [12]) was 65, the “Measured value E” value (Bristlegrass [13]; Table 7, dose 22.5 ga.i./hm^2) was 15% and the “Measured value E” value (Bristlegrass [13]; Table 7, dose 45 ga.i./hm^2) was 50%. The “Measured value E” value (Amaranthusretroflexus [14]; dose 22.5 ga.i./hm^2) was 30% and the “Measured value E” value (Amaranthusretroflexus [14]; dose 45 ga.i./hm^2) was 60%.
With COCC(C)N(C(=O)CCl)c1c(C)csc1C (stereo not shown) [Dimethoxamide] the “Control effect, Lambsquarters” value (Lambsquarters [15]) was 70, the “Control effect, Crabgrass” value (Crabgrass) was 70 and the “Control effect, Amaranthusretroflexus” value (Amaranthusretroflexus [16]) was 55. For the same compound, the “Control effect, Bristlegrass” value (Bristlegrass [17]) was 50, the “Measured value E” value (Bristlegrass [6]; Table 1, dose 75 ga.i./hm^2) was 25% and the “Measured value E” value (Bristlegrass [6]; Table 1, dose 150 ga.i./hm^2) was 40%. For the same compound, the “Measured value E” value (Lambsquarters [18]; Table 1, dose 75 ga.i./hm^2) was 20% and the “Measured value E” value (Lambsquarters [18]; Table 1, dose 150 ga.i./hm^2) was 35%.
For CCc1cnc(C2=NC(C)(C(C)C)C(=O)N2)c(C(=O)O)c1 (stereo not shown) [Imazethapyr], the “Control effect, Abutilon” value (Abutilon [1]; Table 9, dose 100 ga.i./hm^2) was 45, the “Control effect, Echinochloacrusgalli” value (Echinochloacrusgalli [2]; Table 9, dose 100 ga.i./hm^2) was 60 and the “Control effect, Amaranthusretroflexus” value (Amaranthusretroflexus [3]; Table 9, dose 100 ga.i./hm^2) was 70. The “Control effect, Bristlegrass” value (Bristlegrass [4]; Table 9, dose 100 ga.i./hm^2) was 50, the “Measured value E” value (Abutilon [5]; Table 4, dose 45 ga.i./hm^2) was 5% and the “Measured value E” value (Abutilon [5]; Table 4, dose 90 ga.i./hm^2) was 25%. For the same compound, the “Measured value E” value (Bristlegrass [6]; Table 4, dose 45 ga.i./hm^2) was 30%, the “Measured value E” value (Bristlegrass [6]; Table 4, dose 90 ga.i./hm^2) was 45% and the “Measured value E” value (Abutilon [7]; Table 5, dose 22.5 ga.i./hm^2) was 10%. For the same compound, the “Measured value E” value (Abutilon [7]; Table 5, dose 45 ga.i./hm^2) was 20%, the “Measured value E” value (Bristlegrass [8]; Table 5, dose 22.5 ga.i./hm^2) was 45% and the “Measured value E” value (Bristlegrass [8]; Table 5, dose 45 ga.i./hm^2) was 50%.
In the case of CP(=O)(O)CCC(N)C(=O)O (stereo not shown) [Glufosinate-ammonium], the “Control effect, Abutilon” value (Abutilon [9]) is reported as 65, the “Control effect, Echinochloacrusgalli” value (Echinochloacrusgalli [10]) is reported as 60 and the “Control effect, Amaranthusretroflexus” value (Amaranthusretroflexus [11]) is reported as 70. For the same compound, the “Control effect, Bristlegrass” value (Bristlegrass [12]) was 50, the “Measured value E” value (Abutilon [19]; dose 30 ga.i./hm^2) was 40% and the “Measured value E” value (Abutilon [19]; dose 120 ga.i./hm^2) was 60%. The “Measured value E” value (Bristlegrass [13]; Table 6, dose 30 ga.i./hm^2) was 30% and the “Measured value E” value (Bristlegrass [13]; Table 6, dose 120 ga.i./hm^2) was 55%.
For COC[C@H](C)N(C(=O)CCl)c1c(C)csc1C [Dimethoxamid-P], the “Control effect, Lambsquarters” value (Lambsquarters [15]) was 75, the “Control effect, Crabgrass” value (Crabgrass) was 70 and the “Control effect, Amaranthusretroflexus” value (Amaranthusretroflexus [16]) was 80. For the same compound, the “Control effect, Bristlegrass” value (Bristlegrass [17]) was 55, the “Measured value E” value (Bristlegrass [6]; Table 1, dose 75 ga.i./hm^2) was 30% and the “Measured value E” value (Bristlegrass [6]; Table 1, dose 150 ga.i./hm^2) was 55%. For the same compound, the “Measured value E” value (Lambsquarters [18]; Table 1, dose 75 ga.i./hm^2) was 35% and the “Measured value E” value (Lambsquarters [18]; Table 1, dose 150 ga.i./hm^2) was 50%.
For CP(=O)(O)CC[C@H](N)C(=O)O.N [Glufosinate-P-ammonium], the “Control effect, Abutilon” value (Abutilon [9]) was 70, the “Control effect, Echinochloacrusgalli” value (Echinochloacrusgalli [10]) was 60 and the “Control effect, Amaranthusretroflexus” value (Amaranthusretroflexus [11]) was 80. The “Control effect, Bristlegrass” value (Bristlegrass [12]) was 45, the “Measured value E” value (Abutilon [19]; dose 30 ga.i./hm^2) was 45% and the “Measured value E” value (Abutilon [19]; dose 120 ga.i./hm^2) was 65%. For the same compound, the “Measured value E” value (Bristlegrass [13]; Table 6, dose 30 ga.i./hm^2) was 40% and the “Measured value E” value (Bristlegrass [13]; Table 6, dose 120 ga.i./hm^2) was 65%.
